Among the data in PubChem BioAssay AID449762 (Southern Research Specialized Biocontainment Screening …, 2010) are IC50 and IC90 values, retold here.

Inconclusive results are not listed.

The test system of the experiment is M. tuberculosis H37Rv growth inhibition, 7H9 media. Description: M. tuberculosis growth inhibition, HTS (AID 449762).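 On all read-outs here: bacterial growth assessed after seven days of incubation.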 To be noted: for IC90: measured here: IC90 growth inhibition.

For the molecule `CCOC(=O)c1ccc(NC(=O)C(C)Sc2nc(O)c(-c3ccccc3)c(=O)[nH]2)cc1` (stereo unspecified), the IC50 is 5.47 µM and the IC90 stood at 22.6 µM. In the same order, the values of `COc1cccc(-c2cc3nc4c(c(NCC(C)(C)CN(C)C)n3n2)CCCC4)c1` are 22 µM and 28.2 µM.

As to `CCOC(=O)c1cc2cc3ccccc3cc2oc1=O`, the IC50 is 34 µM and the IC90 was greater than 100 µM. With `Cc1nn(CCc2nn[nH]n2)c2nc(-c3ccc(Br)cc3)cc(C(F)(F)F)c12`, the IC50 was 4.64 µM and the IC90 was 10.8 µM. In the same order, the values of `C/C(=N\Nc1ccc(S(=O)(=O)N2CCCCC2)cn1)c1cccc(Br)c1` are 32.7 µM and greater than 100 µM. For `CCC[C@@H]1C[C@@H](C(=O)NC(C(C)Cl)[C@H]2O[C@H](SC)[C@H](O)[C@@H](O)[C@H]2O)N(C)C1` (stereo partly specified), in that order: 1.53 µM and 5.1 µM. For `C/C(=N\NC(=O)CC(C)C)c1c(C(F)(F)F)[nH]n(-c2nc3ccccc3s2)c1=O`, in that order: 42.4 µM and greater than 100 µM. `Cn1ncnc2c(=O)n(C)c(=O)nc1-2`: the IC50 is 1.66 µM and the IC90 came to 2.62 µM. For `Cc1ccccc1C1C(C#N)=C2N=C(N)c3c(sc4c3CCCCC4)N2C2=C1C(=O)CC(C)(C)C2` (stereo unspecified), the IC90 was greater than 100 µM. Regarding `CCCCCCN=C1CC(C)(C)CC(=O)/C1=C(/O)CCC`, the IC50 is 43 µM and the IC90 was greater than 100 µM. In the same order, the values of `CCn1c(C)c(C)c2cc(C(=O)Nc3cccc(Cl)c3)ccc21` are 35 µM and greater than 100 µM.

For the molecule `CS/C(Nc1cc(Cl)ccc1Cl)=C(/C#N)C(=O)c1ccco1`, the IC50 was 3.6 µM and the IC90 turned out to be 40.2 µM. In the same order, the values of `O=C(CCS(=O)(=O)c1ccc(F)cc1)Nc1nc(-c2ccccn2)cs1` are 4.5 µM and 17.1 µM. In the same order, the values of `Cc1ccnc(NC(=O)COc2ccc3c(c2)CCC3)c1` are 40.2 µM and greater than 100 µM. Consider `CCOC(=O)CSCC(=O)N1CCC(Cc2ccccc2)CC1`, for which the IC50 was 5.35 µM and the IC90 worked out at 19.6 µM.

`Cn1cc(C(=O)c2ccc(Cl)cc2)cc1-c1nc2ccccc2n1C`: the IC50 was 13.4 µM and the IC90 is 27.1 µM.

Regarding `Cc1c(CN(C)C)c2c(n1Cc1ccccc1)C(=O)c1ccc(Br)cc1-2`, the IC50 is 17.6 µM and the 90% effect concentration (IC90) is 22 µM. In the same order, the values of `CC(c1ccccc1)N1CCN(C(=O)CCl)CC1` (stereo unspecified) are 1.26 µM and 3.24 µM. In the same order, the values of `CC(C)(C)c1ccc(-c2nc(-c3ccncc3)no2)cc1` are 9.16 µM and 33.6 µM. For `CCOC(=O)/C(=N/Nc1ccc(OC)cc1)N1CCCc2ccccc21`, in that order: 78.1 µM and greater than 100 µM. For the molecule `Cc1ccnc(Sc2ccc([N+](=O)[O-])cc2[N+](=O)[O-])n1`, the IC50 was 7.7 µM and the IC90 stood at 15.1 µM. For the molecule `OCC1(Cc2cccc(Cl)c2)CCCN(Cc2ccc3cc(F)ccc3n2)C1` (stereo unspecified), the IC50 was 45.8 µM and the IC90 came to 52.1 µM. For `c1ccc(Cn2nnc3c(N4CCc5ccccc5C4)ncnc32)cc1`, in that order: 19.7 µM and 72.8 µM. Turning to `CC(C)C[C@H](NC(=O)c1nc[nH]c1C(=O)NC1CCN(C(=O)OC(C)(C)C)CC1)C(=O)OCc1ccccc1`, the half-maximal inhibitory concentration (IC50) was 22.4 µM and the IC90 came out at 25.4 µM. For `CCOC(=O)N/N=C(/C)c1ccc([N+](=O)[O-])o1`, in that order: 3.86 µM and 11.8 µM. In the same order, the values of `O=C(Nc1nnc(-c2ccccc2)o1)c1cc(-c2cccs2)nc2ccccc12` are 0.89 µM and 2.25 µM. In the same order, the values of `C=C(C)CSc1cc(C)c(C#N)c2nc3ccccc3n12` are 34.3 µM and 48.1 µM. In the case of `CCc1cc(C(=O)NNC(=O)CCl)sc1C`, the IC50 was 2.55 µM and the IC90 was found to be 4.62 µM.

Consider `COc1ccc(C[C@H]2CN3C(=NC[C@H]3Cc3ccccc3)N2CCNC(=O)CCC2CCCCC2)cc1`, for which the IC50 is 16.8 µM and the IC90 stood at 21.3 µM. For `Cc1oc2c(c1C(=O)NCc1cccnc1)C(=O)c1ccccc1C2=O`, in that order: 9.78 µM and 13.9 µM. In the same order, the values of `Cc1ccc(-n2c(Cl)c(Cl)nc(Cl)c2=O)cc1` are 5.97 µM and 18.3 µM.

On to `CN(C)CCNc1ncnc2c1sc1nc(-c3ccccc3)c3c(c12)CCCC3`, for which the IC50 is 17.7 µM and the IC90 was found to be 20.7 µM.

Consider `O=C(CCc1nnc(CCCc2ccccc2)o1)NCCCC1CCCC1`, for which the IC50 is 10.5 µM and the concentration for an effect of 90% (IC90) turned out to be 23.1 µM. As to `Cc1ccc(-n2nc(C)c3c(C)c(CCC(=O)Nc4ccc(CN5CCCC5)cc4)c(C)nc32)cc1`, the IC50 was 13.4 µM and the IC90 was 19.9 µM. Consider `CC(=O)Nc1ccc(S(=O)(=O)Nc2ccc(N3CCCCC3)cc2)cc1`, for which the IC50 is 12.4 µM and the IC90 was determined as 13.8 µM. For `Cc1ccc(C(=O)C[n+]2cc(-c3ccc(C)cc3)n3c2CCCCC3)cc1`, in that order: 15.3 µM and 19.8 µM. In the same order, the values of `CCN(CC)CCCNc1nc2cc(OC)c(OC)cc2c2nc(-c3ccccc3)nn12` are 4.71 µM and 6 µM. Regarding `CCCCS(=O)(=O)/C=C\C=C/S(=O)(=O)CCCC`, the IC50 was 1.35 µM and the IC90 turned out to be 1.96 µM. For `Nc1nc(Cl)cc(N2CCC(c3cc(-c4ccc(Cl)cc4Cl)n[nH]3)CC2)n1`, in that order: 22.9 µM and 25.9 µM. As for `CSc1ccc(CNC(=O)C2Cc3cc(S(=O)(=O)N4CCCCC4)ccc3N2C(C)=O)cc1` (stereo unspecified), the half-inhibitory concentration (IC50) was 46.4 µM and the IC90 was greater than 50 µM. For `C=CCC1(CC=C)CCCN1C(=O)c1cc(COc2ccc(-n3cncn3)cc2)on1`, in that order: 41.8 µM and greater than 100 µM. For `O=C(/C=C/c1ccco1)Nc1cccc(-c2nc3ccccc3[nH]2)c1`, in that order: 78.5 µM and greater than 100 µM. As for `CCCCN1C(=O)C2(NNc3ccccc3O2)c2ccccc21` (stereo unspecified), the IC50 is 57.5 µM and the IC90 was greater than 100 µM. In the same order, the values of `CCc1ccc2oc(-c3ccc(OC)cc3)cc(=Nc3c(C)n(C)n(-c4ccccc4)c3=O)c2c1` are 22.4 µM and 25.1 µM. In the same order, the values of `Cc1c([N+](=O)[O-])cnc(Sc2ccccc2)c1[N+](=O)[O-]` are 2.01 µM and 7.59 µM.

For the molecule `O=c1cc2[nH]c3ccccc3c(=O)n2nc1-c1ccccc1`, the 50% inhibitory concentration (IC50) is 6.91 µM and the IC90 was found to be 18 µM.

Turning to `COCCN(C(=O)C1CC(=O)N(Cc2ccccc2)C1)c1nc(-c2ccc([N+](=O)[O-])cc2)cs1` (stereo unspecified), the half-inhibitory concentration (IC50) was 24.5 µM and the IC90 came out at 25.4 µM. For `CC1CCN(C(=S)NC(=O)c2cccs2)CC1`, in that order: 12.8 µM and 29 µM. For the molecule `CCCCCCCNC(=O)C1(CC2CC(c3cccc(Br)c3)=NO2)CCNCC1` (stereo unspecified), the IC50 is 42 µM and the IC90 turned out to be 53.1 µM. The molecule `C/C(=N\NC(=O)c1cc2c(s1)CCC(C)C2)c1ccncc1` (stereo unspecified) came in with an IC90 greater than 100 µM. Take `Cc1ccc(C)c(NC(=O)c2cc(-c3ccccc3)nn2-c2ccccc2)c1`: the IC50 was 34.9 µM and the IC90 was determined as 59.6 µM.

`CO[C@@H]1[C@@H](OC(N)=O)[C@@H](O)C(Oc2ccc3c(O)c(NC(=O)c4ccc(O)c(CC=C(C)C)c4)c(=O)oc3c2C)OC1(C)C` (stereo partly specified): the IC50 is 4.98 µM and the IC90 was found to be 9.66 µM. In the same order, the values of `COc1cc(OC)nc(Oc2ccccc2C(=O)Oc2ccc(Cl)cc2)n1` are 68.5 µM and greater than 100 µM. For `CC(C)OC(=O)/C(C#N)=C/c1ccc(-c2ccc(SC(F)F)cc2)o1`, in that order: 5.28 µM and 16.8 µM.

For `N=c1n(Cc2ccc(Cl)cc2)c2ccccc2n1CC(O)COc1ccccc1` (stereo unspecified), the IC50 was 17.5 µM and the IC90 amounted to 25.5 µM. For `CCOC(=O)CNC(=S)n1cnc(N)n1`, in that order: 27.8 µM and 60.6 µM. In the same order, the values of `CCOc1ccc2nc(N/C(N)=N/C(=S)Nc3cccc(C)c3)nc(C)c2c1` are 5.4 µM and greater than 100 µM.

For `CC(C)(C)OC(=O)NNC(=S)NC1CCCCC1`, the IC50 was 21.2 µM and the IC90 stood at 23.8 µM.

For `O=[N+]([O-])/C=C/c1cn(Cc2ccccc2)c2ccccc12`, the IC50 was 82.9 µM and the IC90 was greater than 100 µM. With `CC1=NOC(=O)/C1=C/c1ccc(-c2ccc(Cl)cc2)o1`, the IC50 was 5.22 µM and the IC90 is 70.3 µM. In the same order, the values of `CCOC(=O)c1nn(-c2ccc(C)c(C)c2)cc1O` are 27.1 µM and greater than 100 µM. In the same order, the values of `O=C(c1cccc(-c2ccco2)c1)N1CCCC(N2CCN(c3ccc(F)cc3)CC2)C1` (stereo unspecified) are 52.5 µM and 78.8 µM. In the same order, the values of `CCC(=O)Nc1nc2ccccc2n1Cc1ccc(Cl)cc1` are less than 0.2 µM and 4.92 µM. With `CC1=CC(=O)C(C(C)C)=C/C1=N/OS(=O)(=O)c1ccccc1`, the IC50 was 1.44 µM and the IC90 amounted to 4.12 µM.

Consider `CC(=O)N(Cc1ccc(F)cc1)C1=C(NCCc2ccccc2)C(=O)c2ccccc2C1=O`, for which the IC50 was 5.83 µM and the IC90 turned out to be 6.59 µM. As for `CC(C)(C)OC(=O)NCCCCCc1nnc(SCc2ccc(F)cc2)o1`, the IC50 was 14.2 µM and the IC90 was found to be 48.2 µM. In the same order, the values of `C=CCN1CC[C@]23c4c5ccc(O)c4O[C@H]2/C(=N/NC(=O)c2ccccc2)CC[C@@]3(O)[C@H]1C5` are 79.5 µM and greater than 100 µM. In the same order, the values of `CCCCN(C)CCNC(=O)c1ccc(Cn2c(=S)[nH]c3ccc(Br)cc3c2=O)cc1` are 12.2 µM and 20 µM. For `CC1(c2cc([N+](=O)[O-])cc([N+](=O)[O-])c2)CC(C)(C)N(C(=O)c2ccccc2)c2ccccc21` (stereo unspecified), in that order: 12.1 µM and 19.4 µM. With `C=CCc1c(C)nc(C)nc1N/N=C/c1ccccc1O`, the IC50 was 2.25 µM and the IC90 was 4.08 µM. For `Oc1ccc(/C=N/NC(=S)N2CCOCC2)cc1`, in that order: 4.2 µM and 6.19 µM. `CC1(CCc2ccccc2)NC(=S)N(c2ccc(Cl)cc2)N1` (stereo unspecified) had an IC90 greater than 100 µM.

A word on the IC50: it is the concentration that gives 50% inhibition. Usually IC90 stands for the point of the concentration-response curve where the effect stands at 90%.
